Literature values in US11058694B2, “Nutritional supplements for growth enhancement in pre-pubertal adolescents” (Nutritional Growth Solutions LTD, priority 2014, dated 2021).

Assays:
[1] = versus placebo, daily syrup for six months
[2] = 33 randomized controlled intervention trials
[3] = 6-12 months follow-up, normal serum zinc levels

For `[Zn]` [zinc], the “mean height for age Z-score” value [1] is given as “decreased to a greater extent than placebo”, the “responses in height and in weight increments” value [2] is given as “significant positive responses” and the “height or weight-SDS” value [3] is given as “did not significantly changed”.

For `[Fe]` [iron], the “increase in hemoglobin concentrations, effect size” value (iron interventions, 95% CI: 0.46, 2.51) is given as 1.49 and the “effect of supplementation intervention on child growth” value (iron supplementation) is given as “no significant effect”.

In the case of vitamin A, the “effect of supplementation interventions on growth” value (vitamin A supplementation) is listed as “no significant effect on growth”.
